{"source": "paper PMC8580319", "about": "“Dual activities of ACC synthase: Novel clues regarding the molecular evolution of ACS genes” (Science Advances, 2021)", "molecules": {"B1": {"name": "Arabidopsis ACS7 (AtACS7), 1-aminocyclopropane-1-carboxylate (ACC) synthase 7 (enzyme)", "chain": "MGLPLMMERSSNNNNVELSRVAVSDTHGEDSPYFAGWKAYDENPYDESHNPSGVIQMGLAENQVSFDLLETYLEKKNPEGSMWGSKGAPGFRENALFQDYHGLKTFRQAMASFMEQIRGGKARFDPDRIVLTAGATAANELLTFILADPNDALLVPTPYYPGFDRDLRWRTGVKIVPIHCDSSNHFQITPEALESAYQTARDANIRVRGVLITNPSNPLGATVQKKVLEDLLDFCVRKNIHLVSDEIYSGSVFHASEFTSVAEIVENIDDVSVKERVHIVYSLSKDLGLPGFRVGTIYSYNDNVVRTARRMSSFTLVSSQTQHMLASMLSDEEFTEKYIRINRERLRRRYDTIVEGLKKAGIECLKGNAGLFCWMNLGFLLEKKTKDGELQLWDVILKELNLNISPGSSCHCSEVGWFRVCFANMSENTLEIALKRIHEFMDRRRRF", "notes": "ACC synthase 7 (AtACS7) of Arabidopsis thaliana, TAIR locus AT4G26200; vector pET-28a or pGEX-6p-1 per the methods, HisTrap purification points to the His form; also called wild-type AtACS7; source: E. coli BL21 [Rosetta 2 (DE3) plysS], purified (HisTrap, Hitrap Q HP ion exchange, Superdex 200 gel filtration)"}}, "key": {"AtACS7 [1]": {"target": "T1, AtACS7 (Arabidopsis thaliana, UniProt Q9STR4)", "T1 construct": "gene ACS7; recombinant from E. coli Rosetta 2 (DE3) pLysS; pET-28a (His) or pGEX-6p-1 (GST); His-tagged protein for crystals; dimer", "T1 sequence (Q9STR4 1-447)": "B1 chain", "assay": "inhibition of Cβ-S lyase activity, pyruvate assay", "assay_type": "biochemical", "details": "L-cystine 4 mM, 100 μM PLP, 30°C; forms adduct with PLP"}, "AtACS7 [2]": {"target": "T1, AtACS7", "assay": "Cβ-S lyase activity with and without PLP, pyruvate assay", "assay_type": "biochemical", "details": "L-cystine 4 mM, 30°C"}, "AtACS7 [3]": {"target": "T2, AtACS7 (Arabidopsis thaliana, UniProt Q9STR4, D245N)", "T2 construct": "gene ACS7; recombinant from E. coli Rosetta 2 (DE3) pLysS; pET-28a (His) or pGEX-6p-1 (GST); His-tagged protein for crystals; dimer", "T2 sequence (Q9STR4 1-447 D245N)": "B1 chain with D245N", "assay": "ACC formation, converted to ethylene, GC", "assay_type": "biochemical", "details": "ACS activity, reduced; 0.4 mM SAM, pH 8.5, 30°C, 10 μM PLP"}, "[4]": {"target": "AtACS7-R6 (AtACS7 in which BOX2 is replaced by PpACL1-BOX2) (Arabidopsis | Physcomitrella patens)", "assay": "crystal structure; AtACS7-R6 with PPG (1 mM PLP and AVG added), hanging drop, 0.1 M Hepes pH 7.6, 6% PEG-10000; 2.95 Å; one dimer in the asymmetric unit"}, "[5]": {"target": "the molecule itself", "assay": "crystal structure; AtACS7 with PPG (1 mM PLP and AVG added), hanging drop, 0.1 M tris pH 8.6, 23% PEG-3350; 2.20 Å; four complexes as two dimers in the asymmetric unit"}}, "note": "Residue numbers refer to the chain shown, from its start.", "data": [{"molecule": "NCCO/C=C/[C@H](N)C(=O)O", "note": "[AVG]", "values": [{"measurement": "inhibition at 5 μM", "setting": "AtACS7 [1]", "result": "could be totally suppressed by adding AVG to the reaction mixture"}]}, {"molecule": "Cc1ncc(COP(=O)(O)O)c(C=O)c1O", "note": "[PLP]", "values": [{"measurement": "Cβ-S lyase activity with and without PLP, pyruvate assay", "setting": "AtACS7 [2]", "result": "The Cβ-S lyase activity of AtACS7 was also PLP dependent"}]}, {"molecule": "C[S+](CC[C@H](N)C(=O)O)C[C@H]1O[C@@H](n2cnc3c(N)ncnc32)[C@H](O)[C@@H]1O", "note": "(some centres unmarked) [SAM]", "values": [{"measurement": "ACC formation, converted to ethylene, GC", "setting": "AtACS7 [3]", "result": "mutant still retained considerable, albeit reduced, ACS activity"}]}, {"molecule": "AtACS7-R6 (AtACS7 in which BOX2 is replaced by PpACL1-BOX2) (enzyme)", "values": [{"measurement": "stoichiometry N", "setting": "[4]", "result": 2}]}, {"molecule": "B1", "values": [{"measurement": "stoichiometry N", "setting": "[5]", "result": 2}]}]}
